Measurements: PubChem BioAssay AID330 (DTP/NCI, 2004)
Several values for one entry are separate records, joined by “and”; a condition that tells them apart may be missing. Equal values may be shown once. Inconclusive results and toxic doses are left out. The calls were made as follows: active = survival T/C of 150% or more; inactive = T/C below 125% in these data.

Test system: P388 leukemia ip, CD2F1 mice, survival T/C
Experiment: NCI In Vivo Anticancer Drug Screen. Data for tumor model P388 Leukemia (intraperitoneal) in CD2F1 (CDF1) mice
Conditions: endpoint: median survival time, higher = longer survival
In short: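 Mice carrying the transplanted tumor received test compound or vehicle. Survival was recorded in each group, and the value is the treated-group measurement divided by that of the vehicle-treated control group.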

[1] = dose: 50.0 mg/kg/injection, schedule: Q01DX009 (ip), vehicle: saline with Tween-80
[2] = dose: 100.0 mg/kg/injection, schedule: Q01DX009 (ip), vehicle: saline with Tween-80
[3] = dose: 200.0 mg/kg/injection, schedule: Q01DX009 (ip), vehicle: saline with Tween-80
[4] = dose: 50.0 mg/kg/injection, schedule: Q01DX009 (ip), vehicle: Klucel (hydroxypropylcellulose) (HPC)
[5] = dose: 100.0 mg/kg/injection, schedule: Q01DX009 (ip), vehicle: Klucel (hydroxypropylcellulose) (HPC)
[6] = dose: 50.0 mg/kg/injection, schedule: Q01DX005 (ip), vehicle: Klucel (hydroxypropylcellulose) (HPC)
[7] = dose: 100.0 mg/kg/injection, schedule: Q01DX005 (ip), vehicle: Klucel (hydroxypropylcellulose) (HPC)
[8] = dose: 200.0 mg/kg/injection, schedule: Q01DX005 (ip), vehicle: Klucel (hydroxypropylcellulose) (HPC)

Measured: T/C

CC(C)(C)C(=O)CC(Cc1nccc2ccccc12)c1ccco1 (configuration not stated)
inactive: [1] 113 % of control | [2] 106 % of control | [3] 97 % of control

CCCCCCCC/C=C\CCCCCCCC(=O)OCCSCCOC(C)=O
inactive: [4] 94 % of control | [5] 101 % of control | dose: 200.0 mg/kg/injection, schedule: Q01DX009 (ip), vehicle: Klucel (hydroxypropylcellulose) (HPC) 94 % of control

O=S1(=O)OCc2ccccc21
inactive: dose: 12.5 mg/kg/injection, schedule: Q01DX009 (ip), vehicle: Klucel (hydroxypropylcellulose) (HPC) 98 % of control | dose: 25.0 mg/kg/injection, schedule: Q01DX009 (ip), vehicle: Klucel (hydroxypropylcellulose) (HPC) 100 % of control | [4] 107 % of control | [5] 117 % of control

COc1ccccc1-n1c(Cc2cccc3ccccc23)nnc1SCC(=O)O
inactive: [6] 100 % of control | [7] 100 % of control | [8] 100 % of control

O=C(CNC(=O)Nc1ccc(Cl)c(Cl)c1)N/N=C/c1c(O)ccc2ccccc12
inactive: dose: 3.75 mg/kg/injection, schedule: Q01DX005 (ip), vehicle: saline with Tween-80 96 % of control | dose: 7.5 mg/kg/injection, schedule: Q01DX005 (ip), vehicle: saline with Tween-80 102 % of control | dose: 15.0 mg/kg/injection, schedule: Q01DX005 (ip), vehicle: saline with Tween-80 88 % of control and 94 % of control | dose: 240.0 mg/kg/injection, schedule: Q01DX005 (ip), vehicle: saline with Tween-80 100 % of control

C=C1C(=O)OC2/C=C(\CO)CC/C=C(/C=O)CC(O)C12 (configuration not stated)
inactive: dose: 1.89 mg/kg/injection, schedule: Q01DX005 (ip), vehicle: saline 101 % of control | dose: 3.75 mg/kg/injection, schedule: Q01DX005 (ip), vehicle: saline 101 % of control | dose: 7.5 mg/kg/injection, schedule: Q01DX005 (ip), vehicle: saline 99 % of control | dose: 15.0 mg/kg/injection, schedule: Q01DX005 (ip), vehicle: saline 96 % of control

O=C(c1ccccc1)c1ccc(NC(=O)C(F)(F)F)cc1
inactive: [1] 88 % of control | [2] 86 % of control | [3] 99 % of control

CC(C)c1cc(/C=C2/OC(=O)c3ccccc32)cc(C(C)C)c1O
inactive: dose: 100.0 mg/kg/injection, schedule: Q04DX002 (ip), vehicle: saline 101 % of control | dose: 200.0 mg/kg/injection, schedule: Q04DX002 (ip), vehicle: saline 100 % of control | dose: 400.0 mg/kg/injection, schedule: Q04DX002 (ip), vehicle: saline 106 % of control

O=C(O)C12C=CC(CC1)CC2
inactive: dose: 60.0 mg/kg/injection, schedule: Q01DX005 (ip), vehicle: Klucel (hydroxypropylcellulose) (HPC) 99 % of control | dose: 120.0 mg/kg/injection, schedule: Q01DX005 (ip), vehicle: Klucel (hydroxypropylcellulose) (HPC) 105 % of control | dose: 240.0 mg/kg/injection, schedule: Q01DX005 (ip), vehicle: Klucel (hydroxypropylcellulose) (HPC) 100 % of control

CC(C)(C)OC(=O)NC(CO)C(=O)O (configuration not stated)
inactive: [1] 96 % of control | [2] 96 % of control | [3] 99 % of control

CC(=O)c1ccccc1NC(=O)COc1ccccc1OCC(=O)Nc1ccccc1C(C)=O
inactive: dose: 50.0 mg/kg/injection, schedule: Q01DX005 (ip), vehicle: saline with Tween-80 100 % of control | dose: 100.0 mg/kg/injection, schedule: Q01DX005 (ip), vehicle: saline with Tween-80 92 % of control | dose: 200.0 mg/kg/injection, schedule: Q01DX005 (ip), vehicle: saline with Tween-80 96 % of control

CNCCc1ccc2cc(OC)c(OC)cc2c1
inactive: dose: 25.0 mg/kg/injection, schedule: Q01DX009 (ip), vehicle: saline with Tween-80 90 % of control | [1] 100 % of control | [2] 100 % of control

CCOC(=O)CC(=O)Cc1oc2c(C(C)=O)c(O)c(C)c(O)c2c1C
inactive: [6] 86 % of control | [7] 87 % of control | [8] 90 % of control
